Data on nine compounds can be found in article PMC10248530, “Screening the Thermotoga maritima genome for new wide-spectrum nucleoside and nucleotide kinases” (The Journal of Biological Chemistry, 2023).

Common to all, as to assay type: biochemical
Experiment [1] deals with T1, Tm(d)CMPK (Thermotoga maritima, UniProt Q9X1F6).
T1 construct: gene cmk; synthetic gene, full length, expressed in E. coli, 80 °C heat step and Ni-NTA; tag not described
T1 sequence (Q9X1F6 1-220): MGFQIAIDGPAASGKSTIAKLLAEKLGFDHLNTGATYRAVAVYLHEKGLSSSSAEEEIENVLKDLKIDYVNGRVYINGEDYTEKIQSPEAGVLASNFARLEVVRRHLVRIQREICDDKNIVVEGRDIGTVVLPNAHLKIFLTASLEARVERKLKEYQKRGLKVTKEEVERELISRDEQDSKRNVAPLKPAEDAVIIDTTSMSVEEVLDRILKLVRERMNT
The experiment is described as follows: TLC or HPLC, […] h cascade. Particulars: 1 mM NMP, 1.2 mM ATP, 5 mM acetyl phosphate with TmAcK (ATP regeneration), 10 mM MgCl2, pH 7.6, 37 °C.

For experiment [2], the target named is T2, TmUMPK (Thermotoga maritima, UniProt Q9X1U0).
T2 construct: gene pyrH; synthetic gene, full length, expressed in E. coli, 80 °C heat step and Ni-NTA; tag not described
T2 sequence (Q9X1U0 1-231): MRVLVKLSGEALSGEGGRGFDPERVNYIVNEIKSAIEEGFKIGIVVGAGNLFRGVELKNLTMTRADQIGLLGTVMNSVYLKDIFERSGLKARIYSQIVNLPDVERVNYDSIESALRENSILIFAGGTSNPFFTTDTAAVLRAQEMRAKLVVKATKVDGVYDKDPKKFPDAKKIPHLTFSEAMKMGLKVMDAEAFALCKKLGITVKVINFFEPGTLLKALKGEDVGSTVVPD
The experiment is described as follows: HPLC conversion, […] h. Particulars: 1 mM substrate, 1.2 mM ATP, 2 mM MgCl2, 50 mM KCl, 5 mM DTT, Tris pH 7.6, 37 °C.

The target of experiment [3] is T3, TmAMPK (Thermotoga maritima, UniProt Q9X1I8).
T3 construct: gene adk; synthetic gene, full length, expressed in E. coli, 80 °C heat step and Ni-NTA; tag not described
T3 sequence (Q9X1I8 1-220): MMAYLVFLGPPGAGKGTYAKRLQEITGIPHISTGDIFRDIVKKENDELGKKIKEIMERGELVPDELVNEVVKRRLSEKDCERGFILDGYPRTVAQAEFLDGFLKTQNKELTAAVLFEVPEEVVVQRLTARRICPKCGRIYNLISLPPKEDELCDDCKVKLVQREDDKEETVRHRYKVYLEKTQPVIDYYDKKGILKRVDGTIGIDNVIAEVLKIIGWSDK
Description: TLC or HPLC, […] h cascade. Particulars: 1 mM NMP, 1.2 mM ATP, 5 mM acetyl phosphate with TmAcK (ATP regeneration), 10 mM MgCl2, pH 7.6, 37 °C.

In experiment [4] the target is T4, TmPK (Thermotoga maritima, UniProt Q9WY51).
T4 construct: gene pyk; synthetic gene, full length, expressed in E. coli, 80 °C heat step and Ni-NTA; tag not described
T4 sequence (Q9WY51 1-466): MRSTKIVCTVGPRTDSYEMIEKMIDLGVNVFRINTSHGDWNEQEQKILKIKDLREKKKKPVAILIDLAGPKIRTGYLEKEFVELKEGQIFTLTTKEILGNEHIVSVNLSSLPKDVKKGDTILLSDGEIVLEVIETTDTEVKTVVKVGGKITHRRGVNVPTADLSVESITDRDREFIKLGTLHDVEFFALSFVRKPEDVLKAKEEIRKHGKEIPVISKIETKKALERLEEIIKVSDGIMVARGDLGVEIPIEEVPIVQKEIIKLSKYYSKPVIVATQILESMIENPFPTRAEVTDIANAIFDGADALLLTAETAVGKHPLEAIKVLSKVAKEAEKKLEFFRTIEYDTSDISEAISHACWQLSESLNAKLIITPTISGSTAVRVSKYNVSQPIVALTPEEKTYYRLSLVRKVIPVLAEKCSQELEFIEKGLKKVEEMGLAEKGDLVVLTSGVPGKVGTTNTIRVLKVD
The experiment is described as follows: HPLC conversion, […] h. Particulars: 1 mM substrate, 1.2 mM phosphoenolpyruvate, 2 mM MgCl2, 50 mM KCl, pH 7.6, 37 °C.

Experiment [5] concerns the target T5, TmRK (Thermotoga maritima, UniProt Q9X055).
T5 construct: gene rbsK; synthetic gene, full length, expressed in E. coli, 80 °C heat step and Ni-NTA; tag not described; PfkB family
T5 sequence (Q9X055 1-299): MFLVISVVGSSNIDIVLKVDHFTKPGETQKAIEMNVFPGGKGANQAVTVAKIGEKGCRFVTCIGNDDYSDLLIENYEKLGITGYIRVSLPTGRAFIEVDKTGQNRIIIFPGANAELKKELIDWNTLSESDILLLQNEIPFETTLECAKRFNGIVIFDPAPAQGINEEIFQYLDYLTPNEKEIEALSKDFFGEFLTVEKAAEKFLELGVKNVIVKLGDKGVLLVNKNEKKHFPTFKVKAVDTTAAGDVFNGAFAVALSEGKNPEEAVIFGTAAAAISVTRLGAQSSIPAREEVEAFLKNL
Description: HPLC conversion, […] h. Conditions: 1 mM substrate, 1.2 mM ATP, 2 mM MgCl2, 50 mM KCl, 5 mM DTT, Tris pH 7.6, 37 °C.

The target in experiment [6] is T6, TmTK (Thermotoga maritima, UniProt Q9WYN2).
T6 construct: gene tdk; synthetic gene, full length, expressed in E. coli, 80 °C heat step and Ni-NTA; tag not described
T6 sequence (Q9WYN2 whole entry): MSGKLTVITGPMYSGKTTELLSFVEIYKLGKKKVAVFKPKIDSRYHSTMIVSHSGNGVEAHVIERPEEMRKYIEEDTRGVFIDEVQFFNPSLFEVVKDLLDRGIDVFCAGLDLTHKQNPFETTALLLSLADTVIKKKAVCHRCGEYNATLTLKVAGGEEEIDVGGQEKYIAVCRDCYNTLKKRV
The experiment is described as follows: HPLC conversion, […] h. Conditions: 1 mM substrate, 1.2 mM ATP, 2 mM MgCl2, 50 mM KCl, 5 mM DTT, Tris pH 7.6, 37 °C.

For experiment [7], the target named is T7, TmAcK (Thermotoga maritima, UniProt Q9WYB1).
T7 construct: gene ackA; synthetic gene, full length, expressed in E. coli, 80 °C heat step and Ni-NTA; tag not described
T7 sequence (Q9WYB1 1-403): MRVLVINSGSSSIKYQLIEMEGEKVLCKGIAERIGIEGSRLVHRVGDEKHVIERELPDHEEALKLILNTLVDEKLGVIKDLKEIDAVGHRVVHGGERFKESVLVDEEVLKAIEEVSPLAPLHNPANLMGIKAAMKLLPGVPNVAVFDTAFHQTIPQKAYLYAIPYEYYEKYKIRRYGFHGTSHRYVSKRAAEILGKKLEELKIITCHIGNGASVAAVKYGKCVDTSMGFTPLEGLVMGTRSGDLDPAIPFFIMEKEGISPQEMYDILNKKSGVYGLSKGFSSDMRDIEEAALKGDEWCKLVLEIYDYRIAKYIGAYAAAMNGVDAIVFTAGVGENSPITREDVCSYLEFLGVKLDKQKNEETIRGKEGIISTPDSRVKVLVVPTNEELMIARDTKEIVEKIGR
The experiment is described as follows: HPLC conversion, […] h. Conditions: 1 mM substrate, 1.2 mM acetyl phosphate, 2 mM MgCl2, 50 mM KCl, pH 7.6, 37 °C.

Experiment [8] has as its target T8, TmGMPK (Thermotoga maritima, UniProt Q9X215).
T8 construct: gene gmk; synthetic gene, full length, expressed in E. coli, 80 °C heat step and Ni-NTA; tag not described
T8 sequence (Q9X215 1-207): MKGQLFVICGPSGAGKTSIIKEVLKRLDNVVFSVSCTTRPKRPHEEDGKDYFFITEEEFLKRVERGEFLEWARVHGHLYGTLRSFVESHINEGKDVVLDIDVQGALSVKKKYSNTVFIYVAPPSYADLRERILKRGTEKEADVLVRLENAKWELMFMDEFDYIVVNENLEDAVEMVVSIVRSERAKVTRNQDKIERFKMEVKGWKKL
Description: TLC or HPLC, […] h cascade. Conditions: 1 mM NMP, 1.2 mM ATP, 5 mM acetyl phosphate with TmAcK (ATP regeneration), 10 mM MgCl2, pH 7.6, 37 °C.

For the compound `Nc1ccn([C@@H]2O[C@H](COP(=O)(O)O)[C@@H](O)[C@@H]2O)c(=O)n1` [cytarabine phosphate], in experiment [1], the “TLC or HPLC, 19 h cascade” value is “Tm(d)CMPK converted the sugar-modified substrates araCMP, araGMP, and araUMP”.

For the compound `Nc1ccn([C@@H]2O[C@H](COP(=O)(O)O)[C@@H](O)[C@H]2O)c(=O)n1` [cytidine 5′-monophosphate], the “HPLC conversion, 19 h” value in experiment [2] is “TmUMPK which accepted all natural riboNMPs”.

Regarding `Nc1nc(F)nc2c1ncn2[C@@H]1O[C@H](COP(=O)(O)O)[C@@H](O)[C@@H]1O` [fludarabine phosphate], the “TLC or HPLC, 19 h cascade” value in experiment [3] is “For TmAMPK, NTP formation was observed for all AMP analogs”.

Take `Nc1nc2c(ncn2[C@@H]2O[C@H](COP(=O)(O)OP(=O)(O)O)[C@@H](O)[C@H]2O)c(=O)[nH]1` [guanosine 5′-diphosphate]: the “HPLC conversion, 19 h” value in experiment [4] is “TmPK and TmAcK accepted all natural riboNDPs and deoxyriboNDPs”.

As for `Cc1cn([C@H]2C[C@H](O)[C@@H](CO)O2)c(=O)[nH]c1=O` [thymidine], the “HPLC conversion, 19 h” value in experiment [5] was “it phosphorylates the natural nucleosides thymidine and uridine”; in experiment [6] it was “TmTK accepted all deoxynucleosides and uridine”.

As for `O=c1ccn([C@@H]2O[C@H](COP(=O)(O)OP(=O)(O)O)[C@@H](O)[C@H]2O)c(=O)[nH]1` [uridine 5′-diphosphate], the “HPLC conversion, 19 h” value in experiment [7] is “TmPK and TmAcK accepted all natural riboNDPs and deoxyriboNDPs”.

For `O=c1ccn([C@@H]2O[C@H](COP(=O)(O)O)[C@@H](O)[C@H]2O)c(=O)[nH]1` [uridine 5′-monophosphate], in experiment [2], the “HPLC conversion, 19 h” value is reported as “TmUMPK which accepted all natural riboNMPs”.

Regarding `O=c1ccn([C@@H]2O[C@H](CO)[C@@H](O)[C@H]2O)c(=O)[nH]1` [uridine], the “HPLC conversion, 19 h” value was “it phosphorylates the natural nucleosides thymidine and uridine” in experiment [5]; “TmTK accepted all deoxynucleosides and uridine” in experiment [6].

For `Nc1ncnc2c1ncn2[C@@H]1O[C@H](COP(=O)(O)O)[C@@H](O)[C@@H]1O` [vidarabine phosphate], in experiment [8], the “TLC or HPLC, 19 h cascade” value was “TmGMPK phosphorylated the sugar-modified NMPs araGMP, vidarabine phosphate, and araUMP”.
